Results: patent publication US8088817B2, “Pyrrole derivative having, as substituents, ureido group, aminocarbonly group and bicyclic group which may have substituent” (Santen Pharmaceutical Co., Ltd., priority 2008, dated 2012)

System: TNF-α-induced IL-6 production in normal human skin fibroblast-derived CCD-1059Sk cells
Assay: Test for measurement of inhibitory activity against TNF-α-induced IL-6 production in CCD-1059Sk cells (HTRF Human IL-6 kit)
Type: cell-based
Conditions: test compound at 10 μM; TNF-α-stimulated CCD-1059Sk cells, 16 hours; inhibition ratio which is 100% or more is indicated to be 100%
Protocol: 1. Test for Measurement of Inhibitory Activity Against IL-6 Production
An inhibitory effect on TNF-α-induced IL-6 production in normal human skin fibroblast-derived CCD-1059Sk cells (ATCC No. CRL-2072) was evaluated. The amount of IL-6 was determined by the homogeneous time-resolved fluorescence method using HTRF™ Human IL-6 kit (Cat. No. 62IL6PEB, manufactured by CIS-Bio international, Inc.). Specific test methods will be described below.
(Preparation of Test Compound Solution)
After a test compound was dissolved in dimethyl sulfoxide, the resulting solution was diluted with D-MEM medium containing 0.1% heat-inactivated fetal bovine serum, 0.1 mM MEM non-essential amino acid solution, 100 U/mL penicillin and 100 μg/mL streptomycin (hereinafter referred to as “medium”), whereby a 40 μM test compound solution was prepared.
(Test Method and Measurement Method)
1) CCD-1059Sk cells prepared at a density of 3×10^5 cells/mL were inoculated in a 384-well plate in an amount of 10 μL per well such that the cell density was 3×10^3 cells/well.
2) After the plate was incubated at 37° C. for several hours in a CO2 incubator, 5 μL of the test compound solution was added to each well.
3) After the plate was incubated at 37° C. for 1 hour in a CO2 incubator, 5 μL of a 40 ng/mL TNF-α solution was added to each well.
4) After the plate was incubated at 37° C. for 16 hours in a CO2 incubator, 10 μL of a cryptate-labeled anti-IL-6 antibody and an XL665-labeled anti-IL-6 antibody containing potassium fluoride were added to each well.
5) After the plate was incubated at room temperature for several hours, a fluorescence intensity ratio (665 nm/620 nm) was determined for each well using a multimode plate reader Analyst™ HT (manufactured by Molecular Device Corporation) and Criterion Host software version 2.00 (manufactured by Molecular Device Corporation), and then, the amount of IL-6 was calculated.
6) The same procedures as in the above 1) to 5) were performed except that 0.4% dimethyl sulfoxide was added in place of the test compound, and the obtained result was designated as the control.
7) The same procedures as in the above 1) to 5) were performed except that 0.4% dimethyl sulfoxide and the medium were added in place of the test compound and the TNF-α solution, respectively, and the obtained result was designated as the background.
(Calculation Formula of IL-6 Production Inhibition Ratio)
An IL-6 production inhibition ratio (%) was calculated from the following equation. IL-6 Production Inhibition Ratio(%)=100×{1−[(Amount of IL-6 for Test Compound)−(Amount of IL-6 for Background)]/[(Amount of IL-6 for Control)−(Amount of IL-6 for Background)]} (Evaluation Results)

SMILES	IL-6 production inhibition ratio (%)
NC(=O)Nc1[nH]c(-c2cccc3c2OCCO3)cc1C(N)=O [Compound No. 1-12, 2-Aminocarbonylamino-5-(2,3-dihydro-1,4-benzodioxin-5-yl)pyrrole-3-carboxamide]	97
NC(=O)Nc1[nH]c(-c2cc3ccccc3o2)cc1C(N)=O [Compound No. 1-5, 2-Aminocarbonylamino-5-(benzofuran-2-yl)pyrrole-3-carboxamide]	98
NC(=O)Nc1[nH]c(-c2ccc3sccc3c2)cc1C(N)=O [Compound No. 1-6, 2-Aminocarbonylamino-5-(benzothiophen-5-yl)pyrrole-3-carboxamide]	95
NC(=O)Nc1[nH]c(-c2cccc3c2OCC3)cc1C(N)=O [Compound No. 3-1, 2-Aminocarbonylamino-5-(2,3-dihydrobenzofuran-7)pyrrole-3-carboxamide]	≥ 100
NC(=O)Nc1[nH]c(-c2ccc3occc3c2)cc1C(N)=O [Compound No. 1-8, 2-Aminocarbonylamino-5-(benzofuran-5-yl)pyrrole-3-carboxamide]	86
Cc1c(-c2cc(C(N)=O)c(NC(N)=O)[nH]2)sc2ccccc12 [Compound No. 1-15, 2-Aminocarbonylamino-5-(3-methylbenzothiophen-2-yl)pyrrole-3-carboxamide]	98
NC(=O)Nc1[nH]c(-c2ccc3ccccc3c2)cc1C(N)=O [Compound No. 1-1, 2-Aminocarbonylamino-5-(2-naphthyl)pyrrole-3-carboxamide]	90
